The results in this text go back to patent US11986532B2 (Arvinas Operations, Inc., priority 2021, dated 2024).

Molecules are shown by their SMILES. Where two headings read alike, the source gives them in different places.

In this experiment the target is T1, BCL6 (Homo sapiens, UniProt P41182).
T1 construct: endogenous in cells; host or cells: T47D breast cancer epithelial cells
The experiment in a line: Immunofluorescence protocol for high content imaging of BCL6 (degradation) in T47D cells, 3 days compound treatment. It counts as cell-based. Particulars: for DC50: read-out: Mean DC50 (nM)* category; for Dmax: read-out: Mean Dmax (%)** category. The method in brief:
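High content immunofluorescence imaging (10×, 4 fields/well) of BCL6 using rabbit primary antibody, Alexa-488 secondary, cell mask and Hoechst nuclear stain after PFA fixation. Before staining, T47D cells (7K/well) were exposed for 3 days at 37° C to 3-fold serial dilutions of compound, top final concentration 0.1 or 1 μM.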

[1] abbreviates: T47D cells, 3 days compound treatment.

For orientation: DC50 means the concentration at which degradation of the target reaches its halfway point. The Dmax is the greatest extent of degradation seen. For the molecule `CNC(=O)COc1cc2cc(Nc3nc(N4CCC(CN5CCC6(CC5)CN(c5ccc7c(c5)C(=O)N(C5CCC(=O)NC5=O)C7=O)C6)CC4)ncc3Cl)cc(F)c2n(C(C)C)c1=O` (stereo not shown) [Compound 111, 2-{[6-({5-chloro-2-[4-({2-[2-(2,6-dioxopiperidin-3-yl)-1,3-dioxo-2,3-dihydro-1H-isoindol-5-yl]-2,7-diazaspiro[3.5]nonan-7-yl}methyl)piperidin-1-yl]pyrimidin-4-yl}amino)-8-fluoro-2-oxo-1-(propan-2-yl)-1,2-dihydroquinolin-3-yl]oxy}-N-methylacetamide], under setting [1], the DC50 was below 10 nM and the Dmax was in the range of 50 to 70%. Take `CNC(=O)COc1cc2cc(Nc3nc(N4CCC(CN5CCN(c6ccc7c(c6C)C(=O)N(C6CCC(=O)NC6=O)C7=O)CC5)CC4)ncc3Cl)ccc2n(C(C)C)c1=O` (stereo not shown) [Compound 403, 2-{[6-({5-chloro-2-[4-({4-[2-(2,6-dioxopiperidin-3-yl)-4-methyl-1,3-dioxo-2,3-dihydro-1H-isoindol-5-yl]piperazin-1-yl}methyl)piperidin-1-yl]pyrimidin-4-yl}amino)-2-oxo-1-(propan-2-yl)-1,2-dihydroquinolin-3-yl]oxy}-N-methylacetamide]: the DC50 was below 10 nM. For the same molecule, the Dmax (T47D) is 50 to 70%. On to `CNC(=O)COc1cc2cc(Nc3nc(N4CCC(CN5CCC6(CC5)CN(c5ccc7c(c5C(C)C)CN(C5CCC(=O)NC5=O)C7=O)C6)CC4)ncc3Cl)ccc2n(C(C)C)c1=O` (stereo not shown) [Compound 272, 2-{[6-({5-chloro-2-[4-({2-[2-(2,6-dioxopiperidin-3-yl)-1-oxo-4-(propan-2-yl)-2,3-dihydro-1H-isoindol-5-yl]-2,7-diazaspiro[3.5]nonan-7-yl}methyl)piperidin-1-yl]pyrimidin-4-yl}amino)-2-oxo-1-(propan-2-yl)-1,2-dihydroquinolin-3-yl]oxy}-N-methylacetamide], for which the DC50 is below 10 nM. In addition, the Dmax (T47D) was 50 to 70%. With `CNC(=O)COc1cc2cc(Nc3nc(N4CCC(CN5CC6(CCN(c7cc(F)c8c(c7)CN(C7CCC(=O)NC7=O)C8=O)CC6)C5)CC4)ncc3Cl)ccc2n(C(C)C)c1=O` (stereo not shown) [Compound 86, 2-{[6-({5-chloro-2-[4-({7-[2-(2,6-dioxopiperidin-3-yl)-7-fluoro-1-oxo-2,3-dihydro-1H-isoindol-5-yl]-2,7-diazaspiro[3.5]nonan-2-yl}methyl)piperidin-1-yl]pyrimidin-4-yl}amino)-2-oxo-1-(propan-2-yl)-1,2-dihydroquinolin-3-yl]oxy}-N-methylacetamide], under setting [1], the DC50 is below 10 nM and the Dmax was 50 to 70%.

`CNC(=O)COc1cc2cc(Nc3nc(N4CCC(O[C@H]5C[C@H](N6C[C@@H](C)N(c7ccc8c(c7)C(=O)N(C7CCC(=O)NC7=O)C8=O)[C@H](C)C6)C5)CC4)ncc3Cl)ccc2n(C(C)C)c1=O` (stereo partly drawn) [Compound 245, 2-({6-[(5-chloro-2-{4-[(1r,3r)-3-[(3R,5R)-4-[2-(2,6-dioxopiperidin-3-yl)-1,3-dioxo-2,3-dihydro-1H-isoindol-5-yl]-3,5-dimethylpiperazin-1-yl]cyclobutoxy]piperidin-1-yl}pyrimidin-4-yl)amino]-2-oxo-1-(propan-2-yl)-1,2-dihydroquinolin-3-yl}oxy)-N-methylacetamide]: the DC50 fell in the range of 10 to 50 nM. For the same molecule, the Dmax (T47D) is at least 70%. Take `CNC(=O)COc1cc2cc(Nc3nc(N4CCC(OC5CCC6(CC5)CN(c5cccc7c5C(=O)N(C5CCC(=O)NC5=O)C7)C6)CC4)ncc3Cl)ccc2n(C(C)C)c1=O` (stereo not shown) [Compound 70, 2-{[6-({5-chloro-2-[4-({2-[2-(2,6-dioxopiperidin-3-yl)-3-oxo-2,3-dihydro-1H-isoindol-4-yl]-2-azaspiro[3.5]nonan-7-yl}oxy)piperidin-1-yl]pyrimidin-4-yl}amino)-2-oxo-1-(propan-2-yl)-1,2-dihydroquinolin-3-yl]oxy}-N-methylacetamide]: under setting [1], the DC50 was 10 to 50 nM and the greatest degradation seen (Dmax) fell in the range of 50 to 70%. On to `CNC(=O)COc1cc2cc(Nc3nc(N4CCC(CN5CC(N6CCC(c7ccc8c(c7)CN(C7CCC(=O)NC7=O)C8=O)C(F)C6)C5)CC4)ncc3Cl)ccc2n(C(C)C)c1=O` (stereo not shown) [Compound 217, 2-({6-[(5-chloro-2-{4-[(3-{4-[2-(2,6-dioxopiperidin-3-yl)-1-oxo-2,3-dihydro-1H-isoindol-5-yl]-3-fluoropiperidin-1-yl}azetidin-1-yl)methyl]piperidin-1-yl}pyrimidin-4-yl)amino]-2-oxo-1-(propan-2-yl)-1,2-dihydroquinolin-3-yl}oxy)-N-methylacetamide], for which the DC50 is below 10 nM. Moreover, the greatest degradation seen (Dmax) (T47D) is 50 to 70%.

As to `CNC(=O)COc1cc2cc(Nc3nc(N4CCC(CN5CCC6(CC5)CN(c5cc(OC)c7c(c5)C(=O)N(C5CCC(=O)NC5=O)C7=O)C6)CC4)ncc3Cl)ccc2n(C(C)C)c1=O` (stereo not shown) [Compound 83, 2-{[6-({5-chloro-2-[4-({2-[2-(2,6-dioxopiperidin-3-yl)-7-methoxy-1,3-dioxo-2,3-dihydro-1H-isoindol-5-yl]-2,7-diazaspiro [3.5]nonan-7-yl}methyl)piperidin-1-yl]pyrimidin-4-yl}amino)-2-oxo-1-(propan-2-yl)-1,2-dihydroquinolin-3-yl]oxy}-N-methylacetamide], under setting [1], the DC50 was below 10 nM and the Dmax was in the range of 50 to 70%.

Regarding `CNC(=O)COc1cc2c(F)c(Nc3nc(N4CCC(O[C@H]5C[C@H](N6CCC(c7ccc8c(c7F)CN([C@H]7CCC(=O)NC7=O)C8=O)CC6)C5)CC4)ncc3Cl)ccc2n(C(C)C)c1=O` [Compound 380, 2-({6-[(5-chloro-2-{4-[(1r,3r)-3-(4-{2-[(3S)-2,6-dioxopiperidin-3-yl]-4-fluoro-1-oxo-2,3-dihydro-1H-isoindol-5-yl}piperidin-1-yl)cyclobutoxy]piperidin-1-yl}pyrimidin-4-yl)amino]-5-fluoro-2-oxo-1-(propan-2-yl)-1,2-dihydroquinolin-3-yl}oxy)-N-methylacetamide], the DC50 is below 10 nM. The Dmax (T47D) was in the range of 50 to 70%. Regarding `CNC(=O)COc1cc2cc(Nc3nc(N4CCC(CN5CCC6(CC5)CN(c5ccc7c(c5OC)CN(C5CCC(=O)NC5=O)C7=O)C6(C)C)CC4)ncc3Cl)ccc2n(C(C)C)c1=O` (stereo not shown) [Compound 340, 2-{[6-({5-chloro-2-[4-({2-[2-(2,6-dioxopiperidin-3-yl)-4-methoxy-1-oxo-2,3-dihydro-1H-isoindol-5-yl]-1,1-dimethyl-2,7-diazaspiro [3.5]nonan-7-yl}methyl)piperidin-1-yl]pyrimidin-4-yl}amino)-2-oxo-1-(propan-2-yl)-1,2-dihydroquinolin-3-yl]oxy}-N-methylacetamide], the DC50 was 10 to 50 nM. For the molecule `CNC(=O)COc1cc2cc(Nc3nc(N4CCC(O[C@H]5C[C@H](N6CCN(c7cc(C)c8c(c7)C(=O)N(C7CCC(=O)NC7=O)C8=O)CC6)C5)CC4)ncc3Cl)ccc2n(C(C)C)c1=O` (stereo partly shown) [Compound 378, 2-({6-[(5-chloro-2-{4-[(1r,3r)-3-{4-[2-(2,6-dioxopiperidin-3-yl)-7-methyl-1,3-dioxo-2,3-dihydro-1H-isoindol-5-yl]piperazin-1-yl}cyclobutoxy]piperidin-1-yl}pyrimidin-4-yl)amino]-2-oxo-1-(propan-2-yl)-1,2-dihydroquinolin-3-yl}oxy)-N-methylacetamide], the DC50 fell in the range of 10 to 50 nM. Besides, where the note is “T47D”, the Dmax lay in the range of 50 to 70%.

Turning to `CNC(=O)COc1cc2cc(Nc3nc(N4CC5C(CN6CCN(c7ccc8c(c7)C(=O)N(C7CCC(=O)NC7=O)C8=O)CC6)C5C4)ncc3Cl)ccc2n(C(C)C)c1=O` (stereo not shown) [Compound 157, 2-{[6-({5-chloro-2-[6-({4-[2-(2,6-dioxopiperidin-3-yl)-1,3-dioxo-2,3-dihydro-1H-isoindol-5-yl]piperazin-1-yl}methyl)-3-azabicyclo [3.1.0]hexan-3-yl]pyrimidin-4-yl}amino)-2-oxo-1-(propan-2-yl)-1,2-dihydroquinolin-3-yl]oxy}-N-methylacetamide], under setting [1], the DC50 fell in the range of 10 to 50 nM and the Dmax was below 50%. For the molecule `CNC(=O)COc1cc2cc(Nc3cc(N4CCC(CN5CCC6(CC5)CN(c5ccc7c(c5OC)CN(C5CCC(=O)NC5=O)C7=O)C6(C)C)CC4)ncc3Cl)ccc2n(C(C)C)c1=O` (stereo not shown) [Compound 230, 2-{[6-({5-chloro-2-[4-({2-[2-(2,6-dioxopiperidin-3-yl)-4-methoxy-1-oxo-2,3-dihydro-1H-isoindol-5-yl]-1,1-dimethyl-2,7-diazaspiro[3.5]nonan-7-yl}methyl)piperidin-1-yl]pyridin-4-yl}amino)-2-oxo-1-(propan-2-yl)-1,2-dihydroquinolin-3-yl]oxy}-N-methylacetamide], the DC50 is below 10 nM. With `CNC(=O)COc1cc2cc(Nc3nc(N4CCC(O[C@H]5C[C@H](N6CC[C@@H](c7ccc8c(c7F)CN([C@H]7CCC(=O)NC7=O)C8=O)C[C@H]6C)C5)CC4)ncc3Cl)ccc2n(C(C)C)c1=O` [Compound 294, 2-({6-[(5-chloro-2-{4-[(1r,3r)-3-[(2R,4R)-4-{2-[(3S)-2,6-dioxopiperidin-3-yl]-4-fluoro-1-oxo-2,3-dihydro-1H-isoindol-5-yl}-2-methylpiperidin-1-yl]cyclobutoxy]piperidin-1-yl}pyrimidin-4-yl)amino]-2-oxo-1-(propan-2-yl)-1,2-dihydroquinolin-3-yl}oxy)-N-methylacetamide], the DC50 was below 10 nM. The Dmax (T47D) was at least 70%. Consider `CNC(=O)COc1cc2cc(Nc3nc(N4CCC(OC5CN(C6CCN(c7ccc8c(c7F)CN(C7CCC(=O)NC7=O)C8=O)CC6)C5)CC4)ncc3Cl)ccc2n(C(C)C)c1=O` (stereo not shown) [Compound 260, 2-({6-[(5-chloro-2-{4-[(1-{1-[2-(2,6-dioxopiperidin-3-yl)-4-fluoro-1-oxo-2,3-dihydro-1H-isoindol-5-yl]piperidin-4-yl}azetidin-3-yl)oxy]piperidin-1-yl}pyrimidin-4-yl)amino]-2-oxo-1-(propan-2-yl)-1,2-dihydroquinolin-3-yl}oxy)-N-methylacetamide], for which the 50% degradation concentration (DC50) was below 10 nM. In addition, where the note is “T47D”, the Dmax is 50 to 70%.
